Test results from ChEMBL document CHEMBL4130375, “Design, synthesis and biological evaluation of 4-amidobenzimidazole acridine derivatives as dual PARP and Topo inhibitors for cancer therapy” (Eur J Med Chem, 2017).
Active and inactive are the calls of the source. The rule behind the calls is not given here.

Assays:
[1] = biological target: Poly [ADP-ribose] polymerase 1 (Homo sapiens, UniProt P09874); assay: Inhibition of PARP1 (unknown origin) assessed as reduction in biotinylated poly(ADP-ribose) incorporation on to histone protein by ELISA based colorimetric assay
Poly [ADP-ribose] polymerase 1, sequence (P09874 whole entry): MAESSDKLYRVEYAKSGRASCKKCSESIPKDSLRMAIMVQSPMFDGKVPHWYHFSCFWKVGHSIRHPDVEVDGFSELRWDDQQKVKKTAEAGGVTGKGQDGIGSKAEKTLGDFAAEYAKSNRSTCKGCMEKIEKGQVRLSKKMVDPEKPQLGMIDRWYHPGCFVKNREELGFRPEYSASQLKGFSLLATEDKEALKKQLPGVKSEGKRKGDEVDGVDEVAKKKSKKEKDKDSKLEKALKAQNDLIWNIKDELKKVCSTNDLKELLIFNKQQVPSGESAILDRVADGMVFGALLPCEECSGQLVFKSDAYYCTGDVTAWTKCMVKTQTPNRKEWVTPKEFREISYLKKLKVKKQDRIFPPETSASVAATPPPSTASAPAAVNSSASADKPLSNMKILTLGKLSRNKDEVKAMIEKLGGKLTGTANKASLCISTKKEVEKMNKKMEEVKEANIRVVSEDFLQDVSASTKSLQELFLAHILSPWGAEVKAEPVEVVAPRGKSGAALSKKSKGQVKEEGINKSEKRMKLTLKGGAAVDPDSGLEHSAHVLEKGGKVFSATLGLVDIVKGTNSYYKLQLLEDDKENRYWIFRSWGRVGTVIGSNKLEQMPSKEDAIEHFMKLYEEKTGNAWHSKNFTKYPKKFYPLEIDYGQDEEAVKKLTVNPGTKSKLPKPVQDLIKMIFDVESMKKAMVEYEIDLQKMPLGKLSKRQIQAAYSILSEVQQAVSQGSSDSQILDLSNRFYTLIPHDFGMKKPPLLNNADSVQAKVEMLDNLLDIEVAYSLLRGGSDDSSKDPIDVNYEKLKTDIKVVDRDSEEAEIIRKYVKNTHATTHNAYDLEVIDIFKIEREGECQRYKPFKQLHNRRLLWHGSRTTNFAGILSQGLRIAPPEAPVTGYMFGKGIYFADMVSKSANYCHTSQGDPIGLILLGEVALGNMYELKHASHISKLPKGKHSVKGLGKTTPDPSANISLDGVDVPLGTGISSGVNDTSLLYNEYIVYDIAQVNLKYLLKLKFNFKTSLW

[2] = tested on: MCF7; assay: Potency index, ratio of m-AMSA IC50 to compound IC50 for human MCF7 cells; type: functional
[3] = tested on: MCF7; assay: Potency index, ratio of olaparib IC50 to compound IC50 for human MCF7 cells; type: functional
[4] = tested on: HCC1937; assay: Antiproliferative activity against human HCC1937 cells harboring BRCA1 mutant after 72 hrs by MTT assay; type: functional, cell-based; conditions: HCC1937, 72 h
[5] = biological target: DNA topoisomerase 2-alpha (Homo sapiens) (UniProt P11388); assay: Inhibition of human topoisomerase-2 at 100 uM using supercoiled pBR322 DNA as substrate after 10 to 15 mins by ethidium bromide staining based electrophoresis method
DNA topoisomerase 2-alpha (Homo sapiens), sequence (P11388 whole entry): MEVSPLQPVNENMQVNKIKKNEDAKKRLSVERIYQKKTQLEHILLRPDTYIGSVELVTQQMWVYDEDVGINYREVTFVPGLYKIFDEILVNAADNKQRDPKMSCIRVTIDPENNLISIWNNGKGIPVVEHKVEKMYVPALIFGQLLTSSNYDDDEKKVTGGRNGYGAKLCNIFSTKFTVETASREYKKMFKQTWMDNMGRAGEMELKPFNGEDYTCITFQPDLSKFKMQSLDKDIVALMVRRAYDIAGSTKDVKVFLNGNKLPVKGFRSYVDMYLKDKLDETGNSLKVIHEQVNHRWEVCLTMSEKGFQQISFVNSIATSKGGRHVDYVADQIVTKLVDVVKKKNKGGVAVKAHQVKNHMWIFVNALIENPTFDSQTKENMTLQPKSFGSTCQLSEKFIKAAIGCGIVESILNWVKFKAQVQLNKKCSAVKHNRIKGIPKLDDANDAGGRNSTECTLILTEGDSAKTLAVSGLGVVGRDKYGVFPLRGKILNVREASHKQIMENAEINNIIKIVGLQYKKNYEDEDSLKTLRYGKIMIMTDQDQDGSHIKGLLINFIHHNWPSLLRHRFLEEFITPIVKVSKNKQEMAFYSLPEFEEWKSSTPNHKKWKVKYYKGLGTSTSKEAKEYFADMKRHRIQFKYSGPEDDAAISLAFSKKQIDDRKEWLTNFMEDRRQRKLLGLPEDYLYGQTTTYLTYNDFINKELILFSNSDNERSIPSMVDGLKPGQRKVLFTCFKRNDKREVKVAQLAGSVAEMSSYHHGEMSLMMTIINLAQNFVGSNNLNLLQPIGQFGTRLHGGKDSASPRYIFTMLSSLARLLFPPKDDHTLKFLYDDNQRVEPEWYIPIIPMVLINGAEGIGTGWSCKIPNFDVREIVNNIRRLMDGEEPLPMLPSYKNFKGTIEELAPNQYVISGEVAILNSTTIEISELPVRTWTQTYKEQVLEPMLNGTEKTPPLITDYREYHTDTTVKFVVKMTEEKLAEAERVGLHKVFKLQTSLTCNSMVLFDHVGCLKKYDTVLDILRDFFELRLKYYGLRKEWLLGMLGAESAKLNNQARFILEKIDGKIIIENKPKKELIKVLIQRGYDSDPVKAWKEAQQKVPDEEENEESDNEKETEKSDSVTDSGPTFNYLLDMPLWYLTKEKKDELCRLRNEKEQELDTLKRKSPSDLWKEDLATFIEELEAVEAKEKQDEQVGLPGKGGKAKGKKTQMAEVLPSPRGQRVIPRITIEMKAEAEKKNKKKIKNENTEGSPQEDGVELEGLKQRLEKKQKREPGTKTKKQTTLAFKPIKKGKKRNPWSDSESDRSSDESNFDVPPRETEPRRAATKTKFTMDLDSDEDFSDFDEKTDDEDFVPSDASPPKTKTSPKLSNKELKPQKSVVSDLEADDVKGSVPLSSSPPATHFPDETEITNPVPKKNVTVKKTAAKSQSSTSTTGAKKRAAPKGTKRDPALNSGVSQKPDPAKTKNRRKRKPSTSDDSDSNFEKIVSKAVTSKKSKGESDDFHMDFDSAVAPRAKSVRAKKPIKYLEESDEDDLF

[6] = biological target: DNA topoisomerase 2-alpha (Homo sapiens) (UniProt P11388); assay: Poison activity at topoisomerase-2 in human MCF7 cells assessed as enzyme-DNA complex formation by measuring decrease in topoisomerase-2 protein expression after 24 hrs by Western blot analysis; type: cell-based
[7] = tested on: MCF7; assay: Induction of DNA double strand breaks in human MCF7 cells assessed as increase in gammaH2AX level after 24 hrs by Western blot analysis; type: functional, cell-based
[8] = tested on: MCF7; assay: Induction of apoptosis in human MCF7 cells assessed as early apoptotic cells at 1 uM after 48 hrs by Annexin V-FITC/propidium iodide staining based flow cytometry (reference value: 0.108%); type: functional
[9] = tested on: MCF7; assay: Induction of apoptosis in human MCF7 cells assessed as live cells at 5 uM after 48 hrs by Annexin V-FITC/propidium iodide staining based flow cytometry (reference value: 99.9%); type: functional
[10] = tested on: MCF7; assay: Induction of apoptosis in human MCF7 cells assessed as late apoptotic cells at 5 uM after 48 hrs by Annexin V-FITC/propidium iodide staining based flow cytometry (reference value: 0%); type: functional
[11] = tested on: MCF7; assay: Induction of apoptosis in human MCF7 cells assessed as live cells at 10 uM after 48 hrs by Annexin V-FITC/propidium iodide staining based flow cytometry (reference value: 99.9%); type: functional
[12] = tested on: MCF7; assay: Induction of apoptosis in human MCF7 cells assessed as early apoptotic cells at 10 uM after 48 hrs by Annexin V-FITC/propidium iodide staining based flow cytometry (reference value: 0.108%); type: functional
[13] = tested on: MCF7; assay: Induction of apoptosis in human MCF7 cells assessed as necrotic cells at 10 uM after 48 hrs by Annexin V-FITC/propidium iodide staining based flow cytometry (reference value: 0%); type: functional
[14] = tested on: MCF7; assay: Induction of apoptosis in human MCF7 cells after 48 hrs by Annexin V-FITC/propidium iodide staining based flow cytometry; type: functional, cell-based
[15] = tested on: MCF7; assay: Upregulation of cleaved caspase-8 protein expression in human MCF7 cells after 24 hrs by Western blot method; type: functional, cell-based
[16] = tested on: MCF7; assay: Downregulation of full length PARP protein expression in human MCF7 cells up to 10 uM after 24 hrs by Western blot method; type: functional, cell-based
[17] = tested on: MCF7; assay: Cell cycle arrest in human MCF7 cells assessed as accumulation at S phase at 1 uM after 24 hrs by propidium iodide staining based flow cytometry (reference value: 59.72 +/- 2.98%); type: functional
[18] = tested on: MCF7; assay: Cell cycle arrest in human MCF7 cells assessed as accumulation at S phase at 5 uM after 24 hrs by propidium iodide staining based flow cytometry (reference value: 59.72 +/- 2.98%); type: functional
[19] = tested on: MCF7; assay: Cell cycle arrest in human MCF7 cells assessed as accumulation at G2/M phase at 10 uM after 24 hrs by propidium iodide staining based flow cytometry (reference value: 22.61 +/- 1.55%); type: functional
[20] = tested on: MCF7; assay: Cell cycle arrest in human MCF7 cells after 24 hrs by propidium iodide staining based flow cytometry; type: functional
[21] = tested on: MCF7; assay: Upregulation of p21 protein expression in human MCF7 cells after 24 hrs by Western blot method; type: functional, cell-based
[22] = tested on: MCF7; assay: Downregulation of CDK2 protein expression in human MCF7 cells up to 10 uM after 24 hrs by Western blot method; type: functional, cell-based
[23] = tested on: MCF7; assay: Downregulation of CDK6 protein expression in human MCF7 cells up to 10 uM after 24 hrs by Western blot method; type: functional, cell-based
[24] = tested on: MCF7; assay: Downregulation of CyclinA protein expression in human MCF7 cells up to 10 uM after 24 hrs by Western blot method; type: functional, cell-based
[25] = tested on: MCF7; assay: Downregulation of CyclinD protein expression in human MCF7 cells up to 10 uM after 24 hrs by Western blot method; type: functional, cell-based
[26] = tested on: MCF7; assay: Downregulation of CyclinE protein expression in human MCF7 cells up to 10 uM after 24 hrs by Western blot method; type: functional, cell-based
[27] = tested on: MCF7; assay: Antitumor activity against human MCF7 cells xenografted in mouse assessed as tumor growth inhibition at 20 to 40 mg/kg/day, ip measured on day 30 post initial treatment; type: functional, organism-based
[28] = Half life in mouse liver microsomes at 1.11 uM preincubated for 5 mins followed by NADPH addition by LC-MS/MS analysis; type: ADME, microsome
[29] = Intrinsic clearance in rat liver microsomes at 1.11 uM preincubated for 5 mins followed by NADPH addition by LC-MS/MS analysis; type: ADME, microsome; conditions: read-out: CLH
[30] = tested on: MCF7; assay: cells; conditions: Homo sapiens, MCF7, 72 h
[31] = biological target: T1, Cytochrome P450 1A2 (Homo sapiens, UniProt P05177); assay: Inhibition of CYP1A2 in human liver microsomes preincubated for 10 mins followed by NADPH/substrate addition measured after 20 mins by LC-MS/MS analysis
T1 sequence (P05177 whole entry): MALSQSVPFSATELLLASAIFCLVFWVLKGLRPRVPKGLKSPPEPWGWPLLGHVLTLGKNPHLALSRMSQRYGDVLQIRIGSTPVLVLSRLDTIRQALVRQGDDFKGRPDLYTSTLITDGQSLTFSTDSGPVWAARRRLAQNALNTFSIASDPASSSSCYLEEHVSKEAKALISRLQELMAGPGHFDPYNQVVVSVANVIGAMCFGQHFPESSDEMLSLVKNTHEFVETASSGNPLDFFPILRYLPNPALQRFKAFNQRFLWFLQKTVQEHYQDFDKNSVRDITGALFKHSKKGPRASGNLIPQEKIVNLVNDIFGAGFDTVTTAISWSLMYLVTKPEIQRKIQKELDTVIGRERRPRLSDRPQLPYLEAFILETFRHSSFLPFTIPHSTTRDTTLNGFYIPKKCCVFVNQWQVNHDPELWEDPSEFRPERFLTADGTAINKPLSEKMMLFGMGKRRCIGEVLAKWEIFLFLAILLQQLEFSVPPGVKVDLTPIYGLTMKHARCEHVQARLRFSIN

[32] = biological target: Cytochrome P450 2C9 (Homo sapiens, UniProt P11712); assay: Inhibition of CYP2C9 in human liver microsomes preincubated for 10 mins followed by NADPH/substrate addition measured after 20 mins by LC-MS/MS analysis
Cytochrome P450 2C9, sequence (P11712 whole entry): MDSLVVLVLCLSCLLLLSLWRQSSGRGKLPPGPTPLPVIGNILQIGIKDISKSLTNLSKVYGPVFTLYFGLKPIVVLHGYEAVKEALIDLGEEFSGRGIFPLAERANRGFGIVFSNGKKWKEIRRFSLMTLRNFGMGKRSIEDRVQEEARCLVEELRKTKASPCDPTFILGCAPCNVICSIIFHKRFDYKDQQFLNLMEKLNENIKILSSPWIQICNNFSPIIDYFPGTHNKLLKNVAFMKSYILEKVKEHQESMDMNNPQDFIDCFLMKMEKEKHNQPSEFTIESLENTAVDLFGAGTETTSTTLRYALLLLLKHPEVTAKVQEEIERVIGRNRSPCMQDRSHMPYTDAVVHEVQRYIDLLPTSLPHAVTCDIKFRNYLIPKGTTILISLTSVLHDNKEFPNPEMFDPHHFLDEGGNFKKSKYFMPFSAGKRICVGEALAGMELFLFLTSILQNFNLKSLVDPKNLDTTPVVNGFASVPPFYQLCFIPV

[33] = biological target: Cytochrome P450 2D6 (Homo sapiens, UniProt P10635); assay: Inhibition of CYP2D6 in human liver microsomes preincubated for 10 mins followed by NADPH/substrate addition measured after 20 mins by LC-MS/MS analysis
Cytochrome P450 2D6, sequence (P10635 whole entry): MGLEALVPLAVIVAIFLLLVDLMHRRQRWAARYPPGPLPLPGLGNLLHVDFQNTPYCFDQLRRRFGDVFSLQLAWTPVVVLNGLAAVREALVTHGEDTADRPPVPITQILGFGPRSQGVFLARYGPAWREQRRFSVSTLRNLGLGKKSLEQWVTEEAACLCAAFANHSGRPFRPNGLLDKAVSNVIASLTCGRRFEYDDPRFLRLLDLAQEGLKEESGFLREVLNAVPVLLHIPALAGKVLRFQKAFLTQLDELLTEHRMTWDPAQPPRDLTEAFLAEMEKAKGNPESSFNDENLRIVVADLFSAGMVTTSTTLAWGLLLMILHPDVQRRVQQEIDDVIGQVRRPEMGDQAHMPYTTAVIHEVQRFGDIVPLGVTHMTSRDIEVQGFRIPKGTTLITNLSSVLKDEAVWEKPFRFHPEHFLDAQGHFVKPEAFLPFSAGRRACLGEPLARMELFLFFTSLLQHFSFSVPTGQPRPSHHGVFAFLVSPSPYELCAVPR

Cc1cccc2c(Nc3cccc(-c4nc5c(C(N)=O)cccc5[nH]4)c3)c3ccccc3nc12
IC50 [1]: 0.45 µM
Ratio IC50 [2]: 4
Ratio IC50 [3]: 17
IC50 [4]: 0.83 µM
inhibition [5]: Active
Activity [6]: Dose-dependent effect
Activity [7]: Dose-dependent effect
Activity [8]: 34.4%
Activity [9]: 39.1%
Activity [10]: 36.4%
Activity [11]: 8.18%
Activity [12]: 9.58%
Activity [13]: 0.327%
Activity [14]: Dose-dependent effect
Activity [15]: Dose-dependent effect
Activity [16]: Active
Activity [17]: 58.27%
Activity [18]: 42.32%
Activity [19]: 10.83%
Activity [20]: Dose-dependent effect
Activity [21]: Dose-dependent effect
Activity [22]: Active
Activity [23]: Active
Activity [24]: Active
Activity [25]: Active
Activity [26]: Active
TGI [27]: Active
half-life at 1.11 µM [28]: 1.44 h
microsomal CLint at 1.11 µM [29]: 28.4 µL/min/mg
IC50 [30]: 2.14 µM
IC50 [31]: > 10 µM
IC50 [32]: 2.2 µM
IC50 [33]: > 10 µM
